Data from publication PMC9525273 (Nature Communications, 2022).
Several values for one entry are separate records, joined by “and”; a condition that tells them apart may be missing. Equal entries are not always repeated. Where two headings read alike, the source gives them in different places.

Assays:
[1] = test system: NF54^WT parasites; assay: microbe, parasite or virus in culture; type: cell-based, Plasmodium falciparum
Protocol: For the NF54-based lines and Dd2-B2-PfATP4^G358S and its parent, assays were initiated with cultures containing predominantly ring-stage parasites with a parasitaemia of 0.3% and a haematocrit of 1%. All assays using NF54 were performed in culture media containing 10% O + human serum. The duration of the assays was 72 h and the concentration of DMSO was <0.5% (v/v). Serial dilutions of the test compounds were performed using a Tecan D300e digital dispenser, with parasite cultures added manually. Parasite survival was assessed by flow cytometry on an Intellicyt iQue3 (Essen Bioscience), with 1× SYBR Green I (Invitrogen) and 200 nM MitoTracker Deep Red FM (Invitrogen) used to stain the nucleus and the mitochondria in live parasites, respectively. The gating strategy used to quantify parasite survival, performed using FlowJo version 10 (FlowJo LLC.), is illustrated in Supplementary Fig. 9. IC50 and IC90 values were calculated by linear interpolation of the dose-response data.

[2] = test system: NF54^CTL parasites; assay: P. falciparum proliferation assay (72 h, flow cytometry, SYBR Green I/MitoTracker); type: cell-based, Plasmodium falciparum
Method in brief: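 Predominantly ring-stage cultures at 0.3% parasitaemia, 1% haematocrit, in medium with 10% O+ human serum; compound exposure 72 h, DMSO <0.5% (v/v). Live parasites counted by flow cytometry with SYBR Green I and 200 nM MitoTracker Deep Red. IC50/IC90 from linear interpolation of dose-response data.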

Question: Which IC90 ([1]; NF54WT parasites, individual experiments, read-out: IC90 values) does the source give for `C[C@H]1[C@@H](O)O[C@@H]2O[C@@]3(C)CC[C@H]4[C@H](C)CC[C@@H]1[C@@]24OO3` [Dihydroartemisinin] here?
Answer: Its IC90 is 1.85 nM and 1.87 nM and 2.79 nM.

Question: What about the “FC (IC50)” value ([1]; NF54WT, reference line) of the same compound?
Answer: The value was 1.0 fold.

Question: What about the “FC (IC90)” value ([1]; NF54WT, reference line) of the same compound?
Answer: Its value is 1.0 fold.

Question: And the IC90 ([1]; Plasmodium falciparum, NF54, NF54WT parasites, individual experiments, read-out: IC90 values)?
Answer: The IC90 was 2.83 nM.

Question: What about the IC90 ([1]; Plasmodium falciparum, NF54, NF54WT parasites, mean of the experiments, read-out: IC90 values, MEAN) of the same compound?
Answer: Its IC90 is 2.3 nM.

Question: What about the IC50 ([1]; Plasmodium falciparum, NF54, NF54WT, 10% human serum, read-out: IC50 ± SEM) of the same compound?
Answer: The IC50 was 0.8 ± 0.1 nM.

Question: And the IC50 ([1]; Plasmodium falciparum, NF54, read-out: Dihydroartemisinin IC50 values, NF54WT, MEAN)?
Answer: Its IC50 is 0.84 nM.

Question: And the IC50 ([1]; read-out: Dihydroartemisinin IC50 values, NF54WT, single experiments)?
Answer: Its IC50 is 0.78 nM and 0.71 nM and 0.86 nM.

Question: What about the “FC (IC50)” value ([2]; NF54CTL compared to NF54WT) of the same compound?
Answer: Its value is 1.1 fold.

Question: And the “FC (IC90)” value ([2]; NF54CTL compared to NF54WT)?
Answer: Its value is 1.2 fold.

Question: And the IC90 ([2]; NF54CTL parasites, individual experiments, read-out: IC90 values)?
Answer: Its IC90 is 3 nM and 2.45 nM and 2.56 nM.

Question: And the IC90 ([2]; Plasmodium falciparum, NF54, NF54CTL parasites, individual experiments, read-out: IC90 values)?
Answer: Its IC90 is 2.88 nM.

Question: And the IC90 ([2]; Plasmodium falciparum, NF54, NF54CTL parasites, mean of the experiments, read-out: IC90 values, MEAN)?
Answer: The IC90 was 2.7 nM.

Question: What about the IC50 ([2]; Plasmodium falciparum, NF54, NF54CTL, 10% human serum, read-out: IC50 ± SEM) of the same compound?
Answer: Its IC50 is 0.9 ± 0.1 nM.

Question: And the IC50 ([2]; Plasmodium falciparum, NF54, read-out: Dihydroartemisinin IC50 values, NF54CTL, MEAN)?
Answer: Its IC50 is 0.89 nM.

Question: What about the IC50 ([2]; read-out: Dihydroartemisinin IC50 values, NF54CTL, single experiments) of the same compound?
Answer: Its IC50 is 0.98 nM and 0.8 nM and 0.7 nM.
